Reference: PubChem BioAssay (NCI)
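Interpolation was linear, between the two tested concentrations surrounding the appropriate level; five concentrations were tested over 48 hours in 96-well plates. At the TGI there is no net growth.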 Where a SMILES comes first, the peptide text is derived from it. [ ]: non-standard residue; d: D form. The star is where a group is joined. Bn2Val = CC(C)[C@@H](C(=O)*)N(Cc1ccccc1)Cc1ccccc1; NHPiperonyl = c1cc2c(cc1CN*)OCO2; NMeV = CN[C@H](C(=O)O)C(C)C; dNMeA = CN[C@H](C)C(=O)O

Key:
Test in all cases: DTP human tumour cell line panel, 48 h
IGROV1 ovarian = tested on: IGROV1 ovarian
NCI-H460 lung = tested on: NCI-H460 lung
UO-31 renal = tested on: UO-31 renal
MOLT-4 leukemia = tested on: MOLT-4 leukemia
SW-620 colon = tested on: SW-620 colon
U251 CNS = tested on: U251 CNS
SK-MEL-2 melanoma = tested on: SK-MEL-2 melanoma
HOP-92 NSCLC = tested on: HOP-92 NSCLC
TK-10 renal = tested on: TK-10 renal
SNB-19 CNS = tested on: SNB-19 CNS
HT29 colon = tested on: HT29 colon
HS 578T breast = tested on: HS 578T breast
MCF7 breast = tested on: MCF7 breast
NCI-H522 lung = tested on: NCI-H522 lung
RPMI-8226 leukemia = tested on: RPMI-8226 leukemia
HCT-15 colon = tested on: HCT-15 colon
OVCAR-3 ovarian = tested on: OVCAR-3 ovarian
HCT-116 colon = tested on: HCT-116 colon
CCRF-CEM leukemia = tested on: CCRF-CEM leukemia
RXF 393 renal = tested on: RXF 393 renal

| SMILES | TGI (IGROV1 ovarian) | TGI (NCI-H460 lung) | TGI (UO-31 renal) | TGI (MOLT-4 leukemia) | TGI (SW-620 colon) | TGI (U251 CNS) | TGI (SK-MEL-2 melanoma) | TGI (HOP-92 NSCLC) | TGI (TK-10 renal) | TGI (SNB-19 CNS) | TGI (HT29 colon) | TGI (HS 578T breast) | TGI (MCF7 breast) | TGI (NCI-H522 lung) | TGI (RPMI-8226 leukemia) | TGI (HCT-15 colon) | TGI (OVCAR-3 ovarian) | TGI (HCT-116 colon) | TGI (CCRF-CEM leukemia) | TGI (RXF 393 renal) |
| --- | --- | --- | --- | --- | --- | --- | --- | --- | --- | --- | --- | --- | --- | --- | --- | --- | --- | --- | --- | --- |
| Cc1cccc(-c2cccc(COCc3cccc(-c4cccc(CO)n4)n3)n2)n1 | > 50 µM | > 50 µM | > 50 µM | > 50 µM | > 50 µM | > 50 µM | > 50 µM | > 50 µM | > 50 µM | > 50 µM | > 50 µM | > 50 µM | > 50 µM | > 50 µM | > 50 µM | > 50 µM | > 50 µM | > 50 µM | – | – |
| O=C1c2ccccc2-c2nc(-c3cccs3)cc3c2c1nc1ccccc13 | 92.5 µM | > 100 µM | > 100 µM | > 100 µM | 31 µM | > 100 µM | 32 µM | > 100 µM | > 100 µM | > 100 µM | 62.6 µM | 90 µM | 29.2 µM | 83.5 µM | > 100 µM | 57.1 µM | 9.39 µM | 42.2 µM | > 100 µM | – |
| CSc1ccc(/C=C/C(=O)c2nc3ccccc3[nH]2)cc1 | > 100 µM | 45.2 µM | 19.9 µM | 18.6 µM | 50.3 µM | – | 37.7 µM | > 100 µM | 31.5 µM | 49.4 µM | 46.2 µM | > 100 µM | 8.97 µM | 33.5 µM | 13.4 µM | 40.6 µM | 40.5 µM | 31.4 µM | > 100 µM | – |
| CC(C)[C@H](NC(=O)[C@H](C(C)C)N(Cc1ccccc1)Cc1ccccc1)C(=O)N(C)[C@H](C(=O)N1CCC[C@H]1C(=O)N(C)[C@H](C)C(=O)NCc1ccc2c(c1)OCO2)C(C)C (Bn2Val-V[NMeV]P[dNMeA]-NHPiperonyl) | > 100 µM | > 100 µM | > 100 µM | > 100 µM | > 100 µM | 43 µM | 25.5 µM | – | > 100 µM | > 100 µM | 9.04 µM | > 100 µM | 7.55 µM | > 100 µM | 6.2 µM | > 100 µM | 57.9 µM | 23.2 µM | 8.72 µM | – |
| CC1(C)CC(=O)c2c([nH]c(=S)c(C#N)c2-c2ccc(Br)cc2)C1 | > 100 µM | > 100 µM | > 100 µM | – | > 100 µM | > 100 µM | 76.6 µM | 52.5 µM | > 100 µM | > 100 µM | > 100 µM | > 100 µM | > 100 µM | > 100 µM | – | > 100 µM | > 100 µM | > 100 µM | > 100 µM | > 100 µM |
| CC(C)C(C)C(O)C(O)C(C)C1CCC2C3COC(=O)C4CC(O)C(O)CC4(C)C3CCC12C (stereo not given) | > 100 µM | > 100 µM | > 100 µM | 59.1 µM | > 100 µM | > 100 µM | > 100 µM | > 100 µM | > 100 µM | > 100 µM | > 100 µM | > 100 µM | > 100 µM | > 100 µM | – | > 100 µM | – | > 100 µM | 67.5 µM | 67.4 µM |
| CC(=O)N(CN1C(=O)CCC1C(=O)O)c1ccc(C)cc1 (stereo not given) | > 100 µM | > 100 µM | > 100 µM | > 100 µM | > 100 µM | > 100 µM | > 100 µM | > 100 µM | > 100 µM | > 100 µM | > 100 µM | > 100 µM | > 100 µM | > 100 µM | > 100 µM | > 100 µM | > 100 µM | > 100 µM | > 100 µM | – |
| CC(=O)OC(=C(C#N)C#N)c1nccnc1C(=O)O | > 100 µM | > 100 µM | > 100 µM | > 100 µM | > 100 µM | > 100 µM | > 100 µM | > 100 µM | – | > 100 µM | > 100 µM | > 100 µM | > 100 µM | > 100 µM | > 100 µM | > 100 µM | > 100 µM | > 100 µM | – | > 100 µM |
| CCC(C#N)NCc1ccc(CNC(C#N)CC)cc1 (stereo not given) | > 100 µM | > 100 µM | > 100 µM | > 100 µM | > 100 µM | > 100 µM | > 100 µM | > 100 µM | > 100 µM | > 100 µM | > 100 µM | > 100 µM | > 100 µM | > 100 µM | – | > 100 µM | > 100 µM | > 100 µM | > 100 µM | > 100 µM |
| CCCCCCCCCCCCCCCCOP(=O)(O)OP(=O)(O)OCC1OC(n2cnc3c(N)ncnc32)C(O)C1O (stereo not given) | > 100 µM | > 100 µM | > 100 µM | > 100 µM | > 100 µM | > 100 µM | > 100 µM | 36.7 µM | > 100 µM | > 100 µM | > 100 µM | > 100 µM | > 100 µM | 92.8 µM | – | > 100 µM | > 100 µM | > 100 µM | 86.6 µM | > 100 µM |
| Cn1cc(S(=O)(=O)NC(=O)Nc2ccc(Cl)cc2)c(=O)c2ccc(Cl)cc21 | > 100 µM | > 100 µM | > 100 µM | > 100 µM | > 100 µM | > 100 µM | > 100 µM | – | > 100 µM | > 100 µM | > 100 µM | > 100 µM | > 100 µM | 41.4 µM | – | > 100 µM | > 100 µM | > 100 µM | > 100 µM | > 100 µM |
| COC1CC(=O)C2C(=O)N(c3ccccc3)C(=O)C23C(C(=O)c2ccccc2)=C(C)NC13O (stereo not given) | 27.5 µM | 45.4 µM | 40.9 µM | – | 23 µM | 35.5 µM | 33.6 µM | 25.2 µM | 20.2 µM | 51.1 µM | 34.2 µM | 57.7 µM | 16.7 µM | 6.3 µM | 21.3 µM | 23.4 µM | 8.12 µM | 22.6 µM | 28.9 µM | – |
